# From patent US10227331B2 (priority 2015, dated 2019)
# Where two headings read alike, the source gives them in different places.
# Assays:
# [1] = test system: P. aeruginosa expressing IMP-1, efflux− (MB9799); assay: Efflux: concentration of MBL inhibitor which restores susceptibility to imipenem; format: cell-based, Pseudomonas aeruginosa; conditions: imipenem at 2 μg/mL, in the presence of a class A, C, D serine β-lactamase inhibitor closely related to relebactam
# Text: (§1) The strain background is Pseudomonas aeruginosa PAO1.
# [2] = test system: P. aeruginosa expressing IMP-1, efflux+ (MB9798); format: cell-based, Pseudomonas aeruginosa; conditions: for P. aeruginosa expressing IMP-1, efflux+ (MB9798) MITC95: imipenem at 2 μg/mL, in the presence of a class A, C, D serine β-lactamase inhibitor closely related to relebactam; for Efflux ratio: ratio MITC95 PA_9798/MITC95 PA_9799
# Text: as §1
# [3] = test system: Klebsiella pneumoniae expressing VIM-1 (IHMA599644); format: cell-based; conditions: with imipenem 1 μg/ml, 95% inhibition of bacterial growth; for Klebsiella pneumoniae MITC95: VIM-1 (IHMA599644)
# Procedure, shortened: (§2)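 Restoration of imipenem susceptibility (1 μg/ml imipenem) was judged by absorbance after 22–24 h at 35° C. Test compound was added to bacteria suspended 1:100 in 1.1× CAMHB from overnight blood-agar cultures.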
# [4] = test system: Escherichia coli expressing NDM-1 (CLB30005, CLB30016); format: cell-based; conditions: with imipenem 1 μg/ml, 95% inhibition of bacterial growth; for Escherichia coli MITC95: NDM-1 (CLB30016)
# Procedure, shortened: as §2
# [5] = test system: Serratia marcescens expressing IMP-1 (CL5741); format: cell-based; conditions: with imipenem 1 μg/ml, 95% inhibition of bacterial growth; for Serratia marcescens MITC95: IMP-1 (CL5741)
# Procedure, shortened: as §2
# VIM-1 = VIM-1 (Pseudomonas aeruginosa (strain ATCC 15692 / DSM 22644 / CIP 104116 / JCM 14847 / LMG 12228 / 1C / PRS 101 / PAO1), UniProt A0A0F7KYQ8); assay: biochemical; conditions: CCF2-FA substrate, 2 hours at 25° C
# Procedure, shortened: (§3)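 Enzyme activity was measured by fluorescence using CCF2-FA, a cephalosporin-linked 7-hydroxycoumarin/fluorescein substrate, with inhibitor, metallo-β-lactamase and substrate incubated together for 2 hours at 25° C. IC50 came from a 4-parameter fit of inhibition versus log inhibitor concentration.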
# IMP-1 = IMP-1 (Serratia marcescens, UniProt P52699); assay: biochemical; format: biochemical
# Sequence of IMP-1 (P52699 whole entry, looked up, species assumed): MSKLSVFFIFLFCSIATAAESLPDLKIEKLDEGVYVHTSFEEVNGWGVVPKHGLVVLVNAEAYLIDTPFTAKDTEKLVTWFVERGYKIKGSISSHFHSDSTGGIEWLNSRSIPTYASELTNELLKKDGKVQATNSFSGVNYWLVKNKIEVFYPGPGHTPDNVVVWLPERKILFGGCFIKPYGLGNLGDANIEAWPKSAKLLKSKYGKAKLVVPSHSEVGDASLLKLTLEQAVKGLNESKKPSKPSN
# Procedure, shortened: as §3
# NDM-1 = NDM-1 (Klebsiella pneumoniae, UniProt C7C422); assay: biochemical; format: biochemical
# Sequence of NDM-1 (C7C422 whole entry, looked up, species assumed): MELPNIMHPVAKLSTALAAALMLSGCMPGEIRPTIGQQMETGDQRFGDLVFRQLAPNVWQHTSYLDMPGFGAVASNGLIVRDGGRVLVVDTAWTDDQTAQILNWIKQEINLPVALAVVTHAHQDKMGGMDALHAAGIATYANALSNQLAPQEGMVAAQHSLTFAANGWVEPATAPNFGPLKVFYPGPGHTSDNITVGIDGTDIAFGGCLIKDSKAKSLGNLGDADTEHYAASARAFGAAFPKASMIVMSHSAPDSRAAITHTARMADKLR
# Procedure, shortened: as §3
# [6] = CCF2-FA substrate, 2 hours at 25° C, read-out: IMP-1 IC50
# [7] = CCF2-FA substrate, 2 hours at 25° C, read-out: NDM-1 IC50
Structure (SMILES),"P. aeruginosa expressing IMP-1, efflux− (MB9799) MITC95 [1] [µM]","P. aeruginosa expressing IMP-1, efflux+ (MB9798) MITC95 [2] [µM]",Efflux ratio [2],Klebsiella pneumoniae MITC95 [3] [µM],Escherichia coli MITC95 [4] [µM],Serratia marcescens MITC95 [5] [µM],IC50 (VIM-1) [nM],IC50 (IMP-1; [6]) [nM],IC50 (NDM-1; [7]) [nM],Klebsiella pneumoniae expressing VIM-1 (IHMA599644) MITC95 [3] [µM],Escherichia coli expressing NDM-1 (CLB30016) MITC95 [4] [µM],Serratia marcescens expressing IMP-1 (CL5741) MITC95 [5] [µM],IC50 (IMP-1) [nM],IC50 (NDM-1) [nM]
"Nc1nc2c(-c3ccc(S(=O)(=O)[C@H]4CN[C@H](CO)C4)c(S(N)(=O)=O)c3-c3nn[nH]n3)cccc2s1 [Example 292, 3-(2-aminobenzo[d]thiazol-4-yl)-6-((3R,5S)-5-(hydroxymethyl)pyrrolidin-3-ylsulfonyl)-2-(2H-tetrazol-5-yl)benzenesulfonamide]",1.563,1.563,1.00,3.125,3.125,1.563,0.332,0.27,0.161,,,,,
"NCCS(=O)(=O)c1ccc(-c2ccc3c(=O)nc[nH]c3c2)c(-c2nnn[nH]2)c1S(N)(=O)=O.O=C(O)C(F)(F)F [Example 165, 2-((4-(4-oxo-1,4-dihydroquinazolin-7-yl)-2-sulfamoyl-3-(1H-tetrazol-5-yl)phenyl)sulfonyl)ethanaminium 2,2,2-trifluoroacetate]",3.125,12.5,4.00,,,,0.571,1.6,2.48,6.25,3.125,3.125,,
"Nc1nc2c(-c3ccc(S(=O)(=O)C4CNC4)c(S(N)(=O)=O)c3-c3nn[nH]n3)cccc2s1 [Example 317, 3-(2-aminobenzo[d]thiazol-4-yl)-6-(azetidin-3-ylsulfonyl)-2-(2H-tetrazol-5-yl)benzenesulfonamide]",0.7813,0.7813,1.00,1.563,1.172,0.7813,0.189,0.227,0.0312,,,,,
"Nc1nc2c(-c3ccc(S(=O)(=O)[C@H]4CCNC4)c(S(N)(=O)=O)c3-c3nn[nH]n3)cccc2o1 [Example 190, 3-(2-aminobenzo[d]oxazol-4-yl)-6-((S)-pyrrolidin-3-ylsulfonyl)-2-(2H-tetrazol-5-yl)benzenesulfonamide]",1.563,1.563,1.00,,,,0.169,,0.113,3.125,1.563,1.563,0.352,
"NCc1nc2c(-c3ccc(S(=O)(=O)C[C@H](O)CN)c(S(N)(=O)=O)c3-c3nn[nH]n3)cccc2[nH]1 [Example 370, (R)-6-((3-amino-2-hydroxypropyl)sulfonyl)-3-(2-(aminomethyl)-1H-benzo[d]imidazol-4-yl)-2-(2H-tetrazol-5-yl) benzenesulfonamide]",0.7813,0.7813,1.00,1.563,0.7813,0.7813,0.393,1.25,0.361,,,,,
"Nc1ccc2cccc(-c3ccc(S(=O)(=O)C4CNC4)c(S(N)(=O)=O)c3-c3nn[nH]n3)c2n1 [Example 36, 3-(2-aminoquinolin-8-yl)-6-(azetidin-3-ylsulfonyl)-2-(2H-tetrazol-5-yl)benzenesulfonamide]",0.7813,0.7813,1.00,,,,0.282,0.357,0.104,1.563,3.125,0.7813,,
"NCCS(=O)(=O)c1ccc(-c2cccc3[nH]c([C@H](N)CN)nc23)c(-c2nn[nH]n2)c1S(N)(=O)=O [Example 327, (R)-6-((2-Aminoethyl)sulfonyl)-3-(2-(1,2-diaminoethyl)-1H-benzo[d]imidazol-4-yl)-2-(2H-tetrazol-5-yl)benzenesulfonamide]",1.563,3.125,2.00,3.125,1.563,3.125,0.455,2.23,,,,,,1.02
"NS(=O)(=O)c1c(S(=O)(=O)C2CNC2)ccc(-c2ccnc3[nH]nnc23)c1-c1nn[nH]n1 [Example 200, 3-(3H-[1,2,3]triazolo[4,5-b]pyridin-7-yl)-6-(azetidin-3-ylsulfonyl)-2-(2H-tetrazol-5-yl)benzenesulfonamide]",25,100,4.00,,,,21.6,13.7,5.65,100,25,25,,
"Cc1ccc(-c2ccc(S(=O)(=O)C3CNC3)c(S(N)(=O)=O)c2-c2nn[nH]n2)c2sc(N)nc12 [Example 33, 3-(2-amino-4-methylbenzo[d]thiazol-7-yl)-6-(azetidin-3-ylsulfonyl)-2-(2H-tetrazol-5-yl)benzenesulfonamide]",1.563,3.125,2.00,,,,0.12,0.296,0.0239,3.125,1.563,1.563,,
"Nc1nc2c(-c3ccc(S(=O)(=O)C[C@H](N)CO)c(S(N)(=O)=O)c3-c3nn[nH]n3)cccc2[nH]1 [Example 273, 3-(2-amino-1H-benzo[d]imidazol-4-yl)-6-((R)-2-amino-3-hydroxypropylsulfonyl)-2-(2H-tetrazol-5-yl)benzenesulfonamide]",0.7813,0.7813,1.00,1.563,0.3906,1.563,0.254,0.709,0.147,,,,,
"CS(=O)(=O)c1ccc([C@H]2CC[C@H](N)CC2)c(-c2nnn[nH]2)c1S(N)(=O)=O [Example 210, 3-((1r,4r)-4-aminocyclohexyl)-6-(methylsulfonyl)-2-(1H-tetrazol-5-yl) benzenesulfonamide]",0.7813,12.5,16.00,,,,0.566,7.76,32.2,3.125,3.125,1.563,,
